Data published in US9527851B2, “Pyrrole six-membered heteroaryl ring derivative, preparation method thereof, and medicinal uses thereof” (Jiangsu Hengrui Medicine Co., Ltd., priority 2011, dated 2016).

How the values were obtained:
JAK1 kinase = JAK1 kinase (Homo sapiens (Human), UniProt P23458); assay: Assay for inhibiting JAK1 kinase (in vitro kinase assay, HRP anti-phosphotyrosine antibody/TMB absorbance); assay type: biochemical; settings: 20 μM ATP, 50 minutes at room temperature; read-out: IC50 (JAK1/Bio)
Method: In vitro activity of compounds of the present invention for inhibiting JAK1 kinase was determined by the following method.
IC50 values of test compounds was calculated from the data of the test compounds in inhibiting the activity of JAK1 kinase at different concentrations.

[1] = Pharmacokinetics assay in rats, intragastric administration, plasma by LC/MS/MS; assay type: in vivo, Sprague-Dawley (SD) rats; settings: SD rats, 10 mg/kg
Method: Rats were used as test animals. […] The pharmacokinetic behavior of the compounds of the present invention was studied and evaluated in rats.
56 Healthy adult Sprague-Dawley (SD) rats, half male and half female, purchased from SINO-BRITSH SIPPR/BK LAB.
The appropriate amount of test compounds were weighed and mixed with 1.0 mL of dimethyl sulfoxide to prepare a 1.0 mg/mL suspension.
After an overnight fast, SD rats were administered intragastrically at a dose of 10.0 mg/kg and an administration volume of 10 mL/kg.
The plasma samples were stored at −20° C. The rats were fed 2 hours after administration.
Content determination of the test compounds in rat plasma after intragastrically administering at different concentrations: 50 μL of rat plasmas taken at various time points after administration were mixed with 50 μL of internal standard solution and 100 μL of methanol and mixed for 3 minutes by a vortexer. The mixture was centrifuged for 10 minutes at 13,500 rpm. 10 μL of the supernatant was taken from the plasma sample and analyzed by LC-MS/MS.
Pharmacokinetic Parameters of the compounds of the present invention were shown as follows: […]

Sequence of JAK1 kinase (P23458 whole entry): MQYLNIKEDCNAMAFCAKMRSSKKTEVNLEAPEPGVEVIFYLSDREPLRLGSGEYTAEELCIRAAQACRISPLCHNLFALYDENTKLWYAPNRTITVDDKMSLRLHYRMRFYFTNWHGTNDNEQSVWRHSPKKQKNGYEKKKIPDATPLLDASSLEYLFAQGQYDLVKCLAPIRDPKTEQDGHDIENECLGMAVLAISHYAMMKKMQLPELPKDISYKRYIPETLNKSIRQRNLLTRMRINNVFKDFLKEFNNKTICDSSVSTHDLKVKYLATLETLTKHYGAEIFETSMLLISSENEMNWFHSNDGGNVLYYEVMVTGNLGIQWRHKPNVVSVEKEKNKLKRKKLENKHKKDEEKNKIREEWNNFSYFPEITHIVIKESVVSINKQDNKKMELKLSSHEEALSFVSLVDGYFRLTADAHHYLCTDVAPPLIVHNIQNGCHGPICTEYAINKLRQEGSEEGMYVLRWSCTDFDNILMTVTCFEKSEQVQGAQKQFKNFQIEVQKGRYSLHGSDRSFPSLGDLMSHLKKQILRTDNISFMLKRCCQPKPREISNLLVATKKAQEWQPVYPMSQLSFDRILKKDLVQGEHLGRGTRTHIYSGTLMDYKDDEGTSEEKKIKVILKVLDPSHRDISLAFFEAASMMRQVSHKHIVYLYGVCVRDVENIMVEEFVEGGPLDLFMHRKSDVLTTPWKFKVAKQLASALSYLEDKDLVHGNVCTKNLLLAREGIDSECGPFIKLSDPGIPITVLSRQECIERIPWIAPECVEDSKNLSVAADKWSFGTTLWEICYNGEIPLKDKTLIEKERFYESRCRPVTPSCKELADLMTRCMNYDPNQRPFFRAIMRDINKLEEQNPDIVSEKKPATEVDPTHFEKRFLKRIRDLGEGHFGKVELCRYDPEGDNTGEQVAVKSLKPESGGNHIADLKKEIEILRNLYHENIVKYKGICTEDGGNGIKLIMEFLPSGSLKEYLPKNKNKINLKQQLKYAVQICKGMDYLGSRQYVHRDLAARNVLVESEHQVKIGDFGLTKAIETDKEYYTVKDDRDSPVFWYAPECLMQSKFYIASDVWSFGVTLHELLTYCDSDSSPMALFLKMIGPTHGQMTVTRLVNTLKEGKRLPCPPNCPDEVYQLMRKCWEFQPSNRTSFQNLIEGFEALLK

SMILES: CN(c1ncnc2[nH]ccc12)[C@H]1C[C@@H]2CN(C(=O)OC(C)(C)C)C[C@@H]2C1 [Example 5, (3aR,5S,6aS)-tert-butyl 5-(methyl(7H-pyrrolo[2,3-d]pyrimidin-4-yl)amino)hexahydro cyclopenta[c]pyrrole-2(1H)-carboxylate]
- IC50 (JAK1 kinase): 30 nM

SMILES: CN(c1ncnc2[nH]ccc12)[C@H]1C[C@@H]2CN(C(=O)CC#N)C[C@@H]2C1 [Example 8, 3-((3aR,5S,6aS)-5-(Methyl(7H-pyrrolo[2,3-d]pyrimidin-4-yl)amino)hexahydrocyclopenta[c]pyrrol-2(1H)-yl)-3-oxopropanenitrile]
- IC50 (JAK1 kinase): 32 nM

SMILES: CC(=O)N1C[C@H]2C[C@H](N(C)c3ncnc4[nH]ccc34)C[C@H]2C1 [Example 11, 1-((3aR,5S,6aS)-5-(Methyl(7H-pyrrolo[2,3-d]pyrimidin-4-yl)amino)hexahydrocyclopenta[c]pyrrol-2(1H)-yl)ethanone]
- IC50 (JAK1 kinase): 33 nM

SMILES: CN(c1ncnc2[nH]ccc12)[C@H]1C[C@@H]2CN(C(=O)C3CC3)C[C@@H]2C1 [Example 13, Cyclopropyl((3aR,5S,6aS)-5-(methyl(7H-pyrrolo[2,3-d]pyrimidin-4-yl)amino)hexahydrocyclopenta[c]pyrrol-2(1H)-yl)methanone]
- IC50 (JAK1 kinase): 30 nM

SMILES: CN(c1ncnc2[nH]ccc12)[C@H]1C[C@@H]2CN(S(=O)(=O)C3CC3)C[C@@H]2C1 [Example 15, N-((3aR,5S,6aS)-2-(Cyclopropylsulfonyl)octahydrocyclopenta[c]pyrrol-5-yl)-N-methyl-7H-pyrrolo[2,3-d]pyrimidin-4-amine]
- IC50 (JAK1 kinase): 80 nM

SMILES: COCC(=O)N1C[C@H]2C[C@H](N(C)c3ncnc4[nH]ccc34)C[C@H]2C1 [Example 18, 2-Methoxy-1-((3aR,5S,6aS)-5-(methyl(7H-pyrrolo[2,3-d]pyrimidin-4-yl)amino)hexahydrocyclopenta[c]pyrrol-2(1H)-yl)ethanone]
- IC50 (JAK1 kinase): 49 nM

SMILES: C[C@@H](O)C(=O)N1C[C@H]2C[C@H](N(C)c3ncnc4[nH]ccc34)C[C@H]2C1 [Example 19, (R)-2-Hydroxy-1-((3aR,5S,6aS)-5-(methyl(7H-pyrrolo[2,3-d]pyrimidin-4-yl)amino)hexahydrocyclopenta[c]pyrrol-2(1H)-yl)propan-1-one]
- IC50 (JAK1 kinase): 48 nM

SMILES: CN(c1ncnc2[nH]ccc12)[C@H]1C[C@@H]2CN(C(=O)CNS(C)(=O)=O)C[C@@H]2C1 [Example 21, N-(2-((3aR,5S,6aS)-5-(Methyl(7H-pyrrolo[2,3-d]pyrimidin-4-yl)amino)hexahydrocyclopenta[c]pyrrol-2(1H)-yl)-2-oxoethyl)methanesulfonamide]
- IC50 (JAK1 kinase): 17 nM

SMILES: CN(c1ncnc2[nH]ccc12)[C@@H]1C[C@@H]2CN(C(=O)CO)C[C@@H]2C1 [Example 23, 2-Hydroxy-1-((3aR,5R,6aS)-5-(methyl(7H-pyrrolo[2,3-d]pyrimidin-4-yl)amino)hexahydrocyclopenta[c]pyrrol-2(1H)-yl)ethanone]
- IC50 (JAK1 kinase): 21 nM

SMILES: CN(c1ncnc2[nH]ccc12)[C@H]1C[C@@H]2CN(CC#N)C[C@@H]2C1 [Example 26, 2-((3aR,5S,6aS)-5-(Methyl(7H-pyrrolo[2,3-d]pyrimidin-4-yl)amino)hexahydrocyclopenta[c]pyrrol-2(1H)-yl)acetonitrile]
- IC50 (JAK1 kinase): 46 nM

SMILES: CN(c1ncnc2[nH]ccc12)[C@H]1C[C@@H]2CN(CCC#N)C[C@@H]2C1 [Example 27, 3-((3aR,5S,6aS)-5-(Methyl(7H-pyrrolo[2,3-d]pyrimidin-4-yl)amino)hexahydrocyclopenta[c]pyrrol-2(1H)-yl)propanenitrile]
- IC50 (JAK1 kinase): 30 nM

SMILES: CN(c1ncnc2[nH]ccc12)[C@H]1C[C@@H]2CN(S(C)(=O)=O)C[C@@H]2C1 [Example 51, N-methyl-N-((3aR,5S,6aS)-2-(methylsulfonyl)octahydrocyclopenta[c]pyrrol-5-yl)-7H-pyrrolo[2,3-d]pyrimidin-4-amine]
- IC50 (JAK1 kinase): 100 nM

SMILES: C[C@H](O)C(=O)N1C[C@H]2C[C@@H](N(C)c3ncnc4[nH]ccc34)C[C@H]2C1 [Example 71, (S)-2-hydroxy-1-((3aR,5S,6aS)-5-(methyl(7H-pyrrolo[2,3-d]pyrimidin-4-yl)amino)hexahydrocyclopenta[c]pyrrol-2(1H)-yl)propan-1-one]
- IC50 (JAK1 kinase): 36 nM

SMILES: C[C@@H](O)C(=O)N1C[C@H]2C[C@@H](N(C)c3ncnc4[nH]ccc34)C[C@H]2C1 [Example 72, (R)-2-hydroxy-1-((3aR,5R,6aS)-5-(methyl(7H-pyrrolo[2,3-d]pyrimidin-4-yl)amino)hexahydrocyclopenta[c]pyrrol-2(1H)-yl)propan-1-one]
- IC50 (JAK1 kinase): 42 nM

SMILES: CNC(=O)N1C[C@H]2C[C@H](N(C)c3ncnc4[nH]ccc34)C[C@H]2C1 [Example 80, (3aR,5S,6aS)-N-methyl-5-(methyl(7H-pyrrolo[2,3-d]pyrimidin-4-yl)amino)hexahydrocyclopenta[c]pyrrole-2(1H)-carboxamide]
- IC50 (JAK1 kinase): 127 nM

SMILES: CN(c1ncnc2[nH]ccc12)[C@H]1C[C@@H]2CN(C(=O)[C@H](O)c3ccccc3)C[C@@H]2C1 [Example 81, (R)-2-hydroxy-1-((3aR,5S,6aS)-5-(methyl(7H-pyrrolo[2,3-d]pyrimidin-4-yl)amino)hexahydrocyclopenta[c]pyrrol-2(1H)-yl)-2-phenylethanone]
- IC50 (JAK1 kinase): 113 nM

SMILES: CC(C#N)C(=O)N1C[C@H]2C[C@H](N(C)c3ncnc4[nH]ccc34)C[C@H]2C1 (stereo partly drawn) [Example 82, 2-methyl-3-((3aR,5S,6aS)-5-(methyl(7H-pyrrolo[2,3-d]pyrimidin-4-yl)amino)hexahydrocyclopenta[c]pyrrol-2(1H)-yl)-3-oxopropanenitrile]
- IC50 (JAK1 kinase): 49 nM

SMILES: CN(c1ncnc2[nH]ccc12)[C@H]1C[C@@H]2CN(C(=O)Nc3nc(OCC(C)(C)O)ns3)C[C@@H]2C1 [Example 99, (3aR,5S,6aS)-N-(3-(2-hydroxy-2-methylpropoxy)-1,2,4-thiadiazol-5-yl)-5-(methyl(7H-pyrrolo[2,3-d]pyrimidin-4-yl)amino)hexahydrocyclopenta[c]pyrrole-2(1H)-carboxamide]
- Vd/F ([1]; both sexes, Sprague-Dawley, rat, plasma, po, read-out: Apparent Distribution Volume Vz/F): 2.76 ± 1.53 L/kg
- AUC ([1]; both sexes, Sprague-Dawley, rat, plasma, po, read-out: Area Under Curve AUC): 14900 ± 10400 ng·h/mL
- CL/F ([1]; both sexes, Sprague-Dawley, rat, plasma, po, read-out: Clearance CL/F): 18.3 ± 14.2 mL/min/kg
- half-life ([1]; both sexes, Sprague-Dawley, rat, plasma, po, read-out: Half-Life t½ (converted)): 2.1 ± 0.73 h
- MRT ([1]; both sexes, Sprague-Dawley, rat, plasma, po, read-out: Mean Residence Time MRT): 3.81 ± 0.82 h
- Cmax ([1]; both sexes, Sprague-Dawley, rat, plasma, po, read-out: Plasma Conc. Cmax): 2670 ± 1450 ng/mL

SMILES: CCc1nsc(NC(=O)N2C[C@H]3C[C@H](N(C)c4ncnc5[nH]ccc45)C[C@H]3C2)n1 [Example 121, (3aR,5S,6aS)-N-(3-ethyl-1,2,4-thiadiazol-5-yl)-5-(methyl(7H-pyrrolo[2,3-d]pyrimidin-4-yl)amino)hexahydrocyclopenta[c]pyrrole-2(1H)-carboxamide]
- Apparent Distribution Volume Vz/F [1]: 7.203 ± 8.113 L/kg
- Area Under Curve AUC [1]: 9617 ± 7909 ng·h/mL
- Clearance CL/F [1]: 31.9 ± 26.9 mL/min/kg
- Mean Residence Time MRT [1]: 3.40 ± 0.91 h
- Plasma Conc. Cmax [1]: 2071 ± 1473 ng/mL

SMILES: CN(c1ncnc2[nH]ccc12)[C@H]1C[C@@H]2CN(C(=O)Nc3nc(C4CC4)ns3)C[C@@H]2C1 [Example 125, (3aR,5S,6aS)-N-(3-cyclopropyl-1,2,4-thiadiazol-5-yl)-5-(methyl(7H-pyrrolo[2,3-d]pyrimidin-4-yl)amino)hexahydrocyclopenta[c]pyrrole-2(1H)-carboxamide]
- Apparent Distribution Volume Vz/F [1]: 18.063 ± 20.748 L/kg
- Area Under Curve AUC [1]: 5997 ± 4741 ng·h/mL
- Clearance CL/F [1]: 46.1 ± 35.6 mL/min/kg
- Plasma Conc. Cmax [1]: 1061 ± 677 ng/mL
